Test results taken from paper PMC11859423, “Fluorescent Probes to Image the KCa3.1 Channel in Tumor Cells” (Pharmaceutics, 2025).
Several values for one entry are separate records, joined by “and”; a condition that tells them apart may be missing. Identical values can stand only once. Entries after “also recorded” stand apart in the source; their conditions may differ. Like-named read-outs stand apart in the source and are kept apart here. Values belong to the compound of their own block, whether it stands above or below them.

Key:
[1] = cited from earlier work; for Absorption λmax / Emission λmax / Stokes Shift / ΦF absolute quantum yield / τ photoluminescence lifetime: 298 K
[2] = UV-Vis absorption and time-resolved photoluminescence spectroscopy; assay type: physicochemical
Method: All solvents used were of spectrometric grade (Uvasol®). UV-visible absorption spectra were measured using a Shimadzu UV–VIS spectrophotometer (UV-3600i). Photoluminescence quantum yields were measured with a Hamamatsu Photonics absolute PL quantum yield measurement system (C9920-02) equipped with a L9799-01 CW Xe light source (150 W), a monochromator, a C7473 photonic multi-channel analyzer, an integrating sphere and employing U6039-05 software, version 3.6.0. (Hamamatsu Photonics, Ltd., Shizuoka, Japan). Steady-state excitation and emission spectra were recorded on a FluoTime 300 spectrometer from PicoQuant equipped with a 300 W ozone-free Xe lamp (200–1100 nm), a 10 W Xe-flash lamp (200–1100 nm, pulse width ca. 1 µs) with repetition rates of 1–300 Hz, a double-grating excitation monochromator (Czerny–Turner type, grating with 1200 lines/mm, blaze wavelength: 300 nm), diode lasers (pulse width < 20 ps) operated by a computer-controlled laser driver PDL-828 “Sepia II” (repetition rate up to 80 MHz, burst mode for slow and weak decays), two emission monochromators (Czerny–Turner, selectable between double-grating blazed at 500 nm with 2.7 nm/mm dispersion and 1200 lines/mm, or single-grating blazed at 1250 nm with 5.4 nm/mm dispersion and 600 lines/mm) with adjustable slit width between 25 μm and 7 mm. Glam–Thompson polarizers for excitation (after the Xe-lamps) and emission (after the sample) were used. Different sample holders (Peltier-cooled mounting unit ranging from −15 to 110 °C or an adjustable front-face sample holder), along with two detectors (namely a PMA Hybrid-07 from PicoQuant with transit time spread FWHM < 50 ps, 200–850 nm, or a H10330C-45-C3 NIR detector with transit time spread FWHM 0.4 ns, 950–1400 nm from Hamamatsu) were used. Steady-state spectra and photoluminescence lifetimes were recorded in TCSPC mode by a PicoHarp 300 (minimum base resolution 4 ps) or in MCS mode by a TimeHarp 260 (where up to several ms can be traced). Emission and excitation spectra were corrected for source intensity (lamp and grating) by standard correction curves. For samples with lifetimes in the ns order, an instrument response function calibration (IRF) was performed using a diluted Ludox® dispersion. Lifetime analysis was performed using the commercial EasyTau 2 software, version 2.3. (PicoQuant, Berlin, Germany). The quality of the fit was assessed by minimizing the reduced chi squared function (χ^2) and visual inspection of the weighted residuals and their autocorrelation.
Fluorescence microscopy was used for the analysis of KCa3.1 channel labeling of cells with fluorescent dyes. Therefore, the photophysical properties of fluorescently labeled senicapoc derivatives 15a, 21a, and 22 were determined. Since the fluorophores are separated from the rest of the molecule by a linker, the photophysical properties could be recorded using azide precursors 6a, 6b, and 7a as well.

[3] = target: T1, KCa3.1 channel in A549-3R cells (Homo sapiens, UniProt O15554); assay: Staining of fixed A549-3R tumor cells (Protocol 1), fluorescence microscopy; assay type: cell-based; conditions: 10 µM in PBS, 10 min, 4 °C, Protocol 1
T1 construct: the non-small cell lung cancer cell line A549-3R with a high expression of the KCa3.1 channel was employed; endogenous in cells; host or cells: A549-3R cells
Method: For the fixation of the cells, the DMEM medium was removed from the glass bottom dish after incubation for 24 h, and the cells were washed with 1 mL of PBS. Subsequently, 1 mL of 4% paraformaldehyde in PBS solution was added to the glass bottom dish and the mixture was incubated for 30 min at room temperature. Thereafter, the cells were washed five times with 1 mL of PBS and used for the cell staining experiments.
After fixation of the cells (Section 2.10.2), 300 µL of the 10 µM staining solution was added to the glass bottom dish. The cells were incubated for 10 min at 4 °C in a dark chamber. After incubation, the cells were washed five times with 1 mL of PBS and used subsequently for fluorescence microscopy.
An Axiovert 200 inverted microscope (Carl Zeiss AG, Jena, Germany) with a ×100 oil immersion objective and a digital camera (SPOT RT SE from Diagnostic Instruments Inc., Livingston, UK) were used. The camera was controlled by MetaVue software (version 6.3r6, Visitron, Germany). Two different filter sets were employed, the FITC filter set (Carl Zeiss Filter Set 10 bandwidth excitation filter 450–490, color splitter 510, bandpass filter 515–565) and the TRITC filter set (Carl Zeiss Filter Set 15, bandpass excitation filter 546/12, dichroic mirror 580, emission filter Long Pass 590).
Using the free imaging software ImageJ (1.53f51, NIH, USA), squares with an edge length of 50 × 50 pixels, corresponding to an area of 9 µm^2, were randomly placed in a cell and signals with Full Width at Half Maximum (FWHM) of ≤5 pixels (~300 nm) were counted as a KCa3.1 channel. For the evaluation, 7 squares were analyzed.
For the staining experiments, the non-small cell lung cancer cell line A549-3R with a high expression of the KCa3.1 channel was employed. An optimized staining protocol (Protocol 1) described previously was followed to analyze the imaging properties of the fluorescent probes. In brief, the 10 µM solution of the senicapoc–dye conjugate in PBS was added to adherent A549-3R cells in a glass bottom dish and the set-up was incubated for 10 min at 4 °C in a dark chamber. After careful washing, the cells were analyzed with a fluorescence microscope.
The images were analyzed with respect to size and density of the fluorescent dots. For this purpose, a square with a size of 50 × 50 pixels was randomly placed on the cell images using ImageJ. The intensities of the signals within the square were analyzed to calculate the Full Width at Half Maximum (FWHM) for each selected dot, which represents a measure for the signal size. For the accurate representation of a single KCa3.1 channel, the FWHM should be in the range of five pixels. Signals with a FWHM of ≤5 pixels within the square were regarded as labeled KCa3.1 channels and the number of identified channels was used to determine the density of the ion channels on the cells (Figure S8, Supplementary Materials).

[4] = logP by HPLC retention time correlation; assay type: physicochemical; conditions: standardized reversed phase HPLC system
Method: The logP values were recorded using HPLC analysis. Thus, the retention time of the test compound in a standardized reversed phase HPLC system is correlated with the retention times of compounds with known logP values.
In addition to the logD7.4 values, the logP values of the fluorescent probes were recorded by HPLC, i.e., after calibration of the method, the retention times were correlated with the logP values or the compounds [33]. […] Fluorescein-labeled ligands 21a and 21b are considerably more polar than the corresponding bodipy-labeled senicapoc derivatives.

[5] = logD7.4 by micro shake flask method (n-octanol / MOPS buffer pH 7.4, LC-MS); assay type: physicochemical; conditions: read-out: logD7.4 ± SD (Micro Shake Flask)
Method: The logD7.4 values were recorded using the micro shake flask method. In this method, the test compound is distributed between n-octanol and MOPS buffer pH 7.4, and the amount of the compound in the buffer layer is determined by mass spectrometry.
The new fluorescent dyes were designed to increase the polarity and reduce the non-specific labeling of lipophilic membranes of cells. Moreover, a higher polarity should lead to increased water solubility and thus improved handling of the dyes. The logD7.4 value was recorded as a measure of the polarity/lipophilicity using our recently published micro-shake flask method. According to this method, the amount of compound in the aqueous 3-morpholinopropanesulfonic acid (MOPS) buffer pH 7.4 was determined by LC-MS [31, 32].

[6] = measured in CH3CN, c = 10^−5 M, CH2CH2O linker instead of CH2CH2OCH2CH2O linker
[7] = solution (CH2Cl2 or CH3CN), c = 10^−5 M, 298 K
[8] = general property stated without reference

Structure (SMILES): CC1=CC(C)=[N+]2C1=C(c1ccc(OCCOCCN=[N+]=[N-])cc1)c1c(C)cc(C)n1[B-]2(F)F [6a]
- Absorption λmax ([1]; CH2Cl2, c = 10^−5 M): 501 nm
- Emission λmax ([1]; CH2Cl2, c = 10^−5 M): 515 nm
- Stokes Shift ([1]; CH2Cl2, c = 10^−5 M): 14 nm
- ΦF absolute quantum yield ([1]; CH2Cl2, c = 10^−5 M): 0.48 ± 0.02
- τ photoluminescence lifetime ([1]; CH2Cl2, c = 10^−5 M): 3.80 ± 0.02 ns

Structure (SMILES): CCC1=C(C)C2=C(c3ccc(OCCOCCN=[N+]=[N-])cc3)c3c(C)c(CC)c(C)n3[B-](F)(F)[N+]2=C1C [6b, 8-[4-(2-(2-Azidoethoxy)ethoxy)phenyl]-2,6-diethyl-4,4-difluoro-1,3,5,7-tetramethyl-4-bora-3a,4a-diaza-s-indacene]
- Absorption λmax [1, 6]: 524 nm
- Emission λmax [1, 6]: 537 nm
- Stokes Shift [1, 6]: 13 nm
- ΦF absolute quantum yield [1, 6]: 0.81 ± 0.02
- τ photoluminescence lifetime [1, 6]: 6.32 ± 0.05 ns
- increase of absorption and emission maxima by two ethyl moieties at the bodipy core ([2]; 6b compared with 6a): 23 nm

Structure (SMILES): CO[B-]1(F)n2c(C)cc(C)c2C(c2ccc(OCCOCCN=[N+]=[N-])cc2)=C2C(C)=CC(C)=[N+]21 (stereo not drawn) [7a]
- Absorption λmax ([1]; CH2Cl2, c = 10^−5 M): 501 nm
- Emission λmax ([1]; CH2Cl2, c = 10^−5 M): 516 nm
- Stokes Shift ([1]; CH2Cl2, c = 10^−5 M): 15 nm
- ΦF absolute quantum yield ([1]; CH2Cl2, c = 10^−5 M): 0.43 ± 0.02
- τ photoluminescence lifetime ([1]; CH2Cl2, c = 10^−5 M): 3.50 ± 0.01 ns

Structure (SMILES): CCC1=C(C)C2=C(c3ccc(OCCOCCN=[N+]=[N-])cc3)c3c(C)c(CC)c(C)n3[B-](F)(OC)[N+]2=C1C (stereo not drawn) [7b, 8-{4-[2-(2-Azidoethoxy)ethoxy]phenyl}-2,6-diethyl-4-fluoro-4-methoxy-1,3,5,7-tetramethyl-4-bora-3a,4a-diaza-s-indacene]
- staining pattern of fixed A549-3R tumor cells [3]: a punctate staining pattern characteristic for the interaction with the ion channel was not observed; also recorded: high fluorescence intensity inside and around the nucleus

Structure (SMILES): O=C1OC2(c3ccc(O)cc3Oc3cc(O)ccc32)c2ccccc21 [fluorescein, reference compound]
- absorption maximum λmax [1, 8]: 485 nm
- emission maximum λmax [1, 8]: 514 nm

The next lines start with results.

- chromatographic logP [4]: 6.7
Structure (SMILES): CCC1=C(C)C2=C(c3ccc(OCCOCCn4cc(COc5ccc(C(C(N)=O)(c6ccccc6)c6ccc(F)cc6)cc5)nn4)cc3)c3c(C)c(CC)c(C)n3[B-](F)(F)[N+]2=C1C (stereo not drawn) [9b, 2-{4-[(1-{2-[4-(2,6-Diethyl-4,4-difluoro-1,3,5,7-tetramethyl-4-bora-3a,4a-diaza-s-indacen-8-yl)phenoxy]ethoxyethyl}-1,2,3-triazol-4-yl)methoxy]phenyl}-2-(4-flluorophenyl)-2-phenylacetamide]
- staining pattern of fixed A549-3R tumor cells [3]: unspecific staining; also recorded: unspecific labeling

- chromatographic logP [4]: 4.8
- quantum yield ([2]; see Table 2): 96%
- Absorption λmax [2, 7]: 501 nm
- Emission λmax [2, 7]: 513 nm
- Stokes Shift [2, 7]: 12 nm
- ΦF absolute quantum yield [2, 7]: 0.96 ± 0.04
- τ photoluminescence lifetime [2, 7]: 5.77 ns and 5.77 ± 0.02 ns
Structure (SMILES): CC1=CC(C)=[N+]2C1=C(CCCCn1cc(COc3ccc(C(C(N)=O)(c4ccccc4)c4ccc(F)cc4)cc3)nn1)c1c(C)cc(C)n1[B-]2(F)F (stereo not drawn) [15a, 2-[4-({1-[4-(4,4-Difluoro-1,3,5,7-tetramethyl-4-bora-3a,4a-diaza-s-indacen-8-yl)butyl]-1,2,3-triazol-4-yl}methoxy)phenyl]-2-(4-fluorophenyl)-2-phenylacetamide]
- staining pattern of fixed A549-3R tumor cells [3]: unspecific staining; also recorded: unspecific labeling

- logD [5]: > 5
- chromatographic logP [4]: 4
Structure (SMILES): CO[B-]1(F)n2c(C)cc(C)c2C(CCCCn2cc(COc3ccc(C(C(N)=O)(c4ccccc4)c4ccc(F)cc4)cc3)nn2)=C2C(C)=CC(C)=[N+]21 (stereo not drawn) [16a, 2-[4-({1-[4-(4-Fluoro-4-methoxy-1,3,5,7-tetramethyl-4-bora-3a,4a-diaza-s-indacen-8-yl)butyl]-1,2,3-triazol-4-yl}methoxy)phenyl]-2-(4-fluorophenyl)-2-phenylacetamide]
- staining pattern of fixed A549-3R tumor cells [3]: unspecific staining; also recorded: unspecific labeling

- chromatographic logP [4]: 5.4
Structure (SMILES): CCC1=C(C)C2=C(CCCCn3cc(COc4ccc(C(C(N)=O)(c5ccccc5)c5ccc(F)cc5)cc4)nn3)c3c(C)c(CC)c(C)n3[B-](F)(OC)[N+]2=C1C (stereo not drawn) [16b, 2-[4-({1-[4-(2,6-Diethyl-4-fluoro-4-methoxy-1,3,5,7-tetramethyl-4-bora-3a,4a-diaza-s-indacen-8-yl)butyl]-1,2,3-triazol-4-yl}methoxy)phenyl]-2-(4-fluorophenyl)-2-phenylacetamide]
- staining pattern of fixed A549-3R tumor cells [3]: unspecific staining; also recorded: unspecific labeling

- chromatographic logP ([4]; HPLC at pH 6.0): 1.3
Structure (SMILES): NC(=O)C(c1ccccc1)(c1ccc(F)cc1)c1ccc(OCCOCCOCCOCCNC(=S)Nc2ccc3c(c2)C(=O)OC32c3ccc(O)cc3Oc3cc(O)ccc32)cc1 (stereo not drawn) [21b, 2-(4-{12-[3-(3′,6′-Dihydroxy-3-oxo-3H-spiro[[2]benzofuran-1,9′-xanthen]-5-yl)thioureido]-1,4,7,10-tteraoxadodecan-1-yl}phenyl)-2-(4-fluorophenyl)-2-phenylacetamide]
- staining pattern of fixed A549-3R tumor cells [3]: A weak green fluorescence of the membrane and an intense staining of the nucleus
